Measured values reported in US20150250746A1, “ACAMPROSATE FORMULATIONS, METHODS OF USING THE SAME, AND COMBINATIONS COMPRISING THE SAME” (Synchroneuron Inc., priority 2013, published 2015).

Key:
[1] = Gastric retention of swellable acamprosate tablet in dog model, induction of fed mode with alpha-lipoic acid; type: in vivo; details: of 800 mg swellable acamprosate tablet after 125 mg alpha-lipoic acid given 15 minutes before; four beagle dogs
[2] = cited from earlier work
[3] = test system: cultured rat hippocampus neurons; experiment: Organotypic hippocampal slice model of glutamate neurotoxicity; type: cell-based; details: 200 μM calcium acamprosate 8 hr or 5 days, removed from medium for up to eight hours
Method: The study is designed to test whether pre-treatment with acamprosate can have long-term neuronal protective effects against glutamate neurotoxicity. The study uses an in vitro organotypic hippocampal slice model. The study assesses whether less than 24 hours per day of exposure to a sufficient level of acamprosate can offer 24-hour therapeutic actions in neuropsychiatric disorders. […] This supports, among other things, the therapeutic use of acamprosate in neuropsychiatric disorders because the latter are related to the effect of acamprosate to decrease glutamate effects at NMDA and metabotropic glutamate receptors.
Hippocampal slices derived from 8-day-old Sprague Dawley rats are plated and subsequently exposed to a relatively acute (8 hour) or more chronic (5 day) acamprosate treatment. The slices are then removed from the medium containing acamprosate and returned to control medium for either 1 or 8 hours. […] The slices are then placed in normal medium with propidium iodide for 24 hr and assessed for neurotoxicity/neuroprotection as described below. […]
Neurotoxicity/neuroprotection assessment: For the final medium change, the plates are moved into normal media containing propidium iodide (PI) added to each well for 24 hours. PI only penetrates cell membranes of damaged or potentially dying cells, binding to DNA to produce a bright, intensified red fluorescence at 630 nm. […]

[4] = test system: abnormal movements; experiment: Transgenic mouse models with movement disorders and hyperglutamatergic states; type: in vivo; details: steadily-maintained blood level; Per2(Brdm1) deletion or ENT1(-/-) mice
[5] = in vivo; cited from earlier work
[6] = test system: tardive dyskinesia; experiment: Clinical cases: acamprosate in patients with tardive dyskinesia; type: in vivo, human; details: for relief of TD involuntary movements: Case 2
Method: Case 1: A person had long-standing tardive dyskinesia induced by treatment of schizoaffective disorder with a variety of neuroleptics and mood stabilizers. Their TD was characterized by side to side movements of the jaw, grimacing movements, rocking of the trunk, and continual involuntary kicking, leg-crossing, and twisting movements of their legs and feet. At the time they presented for treatment of their TD they were treated for their mental illness with lamotrigine and quetiapine, a second-generation neuroleptic.
To test the hypothesis that the efficacy of acamprosate was related to adequate time above a threshold blood level the patient was asked to try taking 1332 mg of acamprosate once a day.
CASE 2: A person had been treated with acamprosate for several years for TD due to exposure to several neuroleptics for schizoaffective disorder. They were currently treated with lamotrigine and quetiapine for their mental illness, and was taking acamprosate 1032 mg+999 mg+1032 mg on a three times daily basis. […] To test the therapeutic threshold hypothesis the patient was asked to try 1032 mg of acamprosate once a day in the morning. […] They noted that when they got relief of their involuntary movements they also had less anxiety and agitation than when the movements were present.

[7] = test system: abnormal chewing movements; experiment: Rat model of tardive dyskinesia (haloperidol-induced abnormal chewing movements); type: in vivo; details: steadily-maintained blood level; haloperidol-exposed rats
Method: Acamprosate is tested using a rat model of tardive dyskinesia looking at abnormal chewing movements produced in rats by exposing them for several weeks to haloperidol, a potent first-generation neuroleptic. […] Rats then are dosed with acamprosate in a way that matches the therapeutic blood level for no more than 12 hours out of 24, to confirm that this reduces the involuntary movements.

SMILES	Average gastric retention time [1]	Maximum gastric retention time [1]	Minimum gastric retention time [1]	solubility [2]	solubility in gastric juice [2]	protection of neurons from challenge with a toxic level of a glutamate agonist [3]	abnormal movements [4]	decrease of bioavailability by food [5]	relief of TD symptoms ([6]; Case 1, 666 mg three times a day)	relief of TD symptoms ([6]; Case 1, 999 mg three times a day)	anxiety and agitation ([6]; Case 1, 999 mg three times a day with perphenazine)	relief of TD symptoms ([6]; Case 1, 1332 mg once a day)	side effects ([6]; Case 1, 1332 mg once a day)	relief of TD involuntary movements ([6]; 999 mg three times a day)	relief of TD involuntary movements ([6]; 1032 mg morning plus second dose of 1032 mg 8 to 10 hours later)	relief of TD involuntary movements ([6]; 1032 mg once a day in the morning)	relief of TD involuntary movements ([6]; 1032 mg+999 mg+1032 mg three times daily)	abnormal chewing movements [7]
O=C(O)CCCCC1CCSS1 (stereo not drawn) [alpha-lipoic acid]	2.8 h	5 h	1.5 h	–	–	–	–	–	–	–	–	–	–	–	–	–	–	–
CC(=O)NCCCS(=O)(=O)O [acamprosate, calcium N-acetylhomotaurinate]	–	–	–	high solubility	immediately and completely soluble	persistent effect	reduce or eliminate the abnormal movements	approximately 30%	partial relief of symptoms	complete relief of their TD	relief of anxiety and agitation	free of involuntary movements of TD	significant GI side effects of diarrhea and abdominal cramps	did not give full relief	complete relief of symptoms	free of movements in the morning and early afternoon but movements returned in the evening	completely relieved their involuntary movements of TD	reduce or eliminate the abnormal movements
